Patent publication US9096593B2, “Compounds and methods for kinase modulation, and indications therefor” (Plexxikon Inc., priority 2009, dated 2015)
Where two headings read alike, the source gives them in different places.

Experiments:
[1] = target: Fms kinase (Homo sapiens (Human), UniProt P07333); experiment: Fms kinase biochemical activity assay (AlphaScreen, biotin-(E4Y)10 phosphorylation)
In short: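 Recombinant human Fms phosphorylating 30 nM biotin-(E4Y)10 with 100 μM ATP (1 ng/well enzyme) in Hepes pH 7.5 buffer with Mg2+/Mn2+, 5% DMSO, 20 min at 30 °C. Phosphotyrosine detected by AlphaScreen streptavidin donor/PY20 acceptor beads; IC50 from signal versus compound concentration.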

[2] = target: CYP1A2 (Homo sapiens (Human), UniProt P05177); experiment: CYP enzyme inhibition, fluorescent substrate
[3] = target: CYP3A4(BFC) (Homo sapiens (Human), UniProt P08684); experiment: CYP enzyme inhibition, fluorescent substrate
In short: (§1)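 […]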

[4] = target: CYP2D6 (Homo sapiens (Human), UniProt P10635); experiment: CYP enzyme inhibition, fluorescent substrate
[5] = target: CYP2C9 (Homo sapiens (Human), UniProt P11712); experiment: CYP enzyme inhibition, fluorescent substrate
In short: as §1

[6] = target: CYP2C19 (Homo sapiens (Human), UniProt P33261); experiment: CYP enzyme inhibition, fluorescent substrate
In short: as §1

[7] = target: CYP3A4(BQ) (Homo sapiens (Human), UniProt P08684); experiment: CYP enzyme inhibition, fluorescent substrate
In short: as §1

[8] = target: c-Kit kinase (Homo sapiens (Human), UniProt P10721); experiment: c-Kit kinase biochemical activity assay (AlphaScreen, biotin-(E4Y)10 phosphorylation)
[9] = 100 μM ATP, read-out: Biochemical (IC50 μM) Fms
[10] = read-out: Biochemical activity (IC50 μM) Fms
[11] = read-out: Cyp IC50 (μM) 3A4(BFC), BFC substrate
[12] = read-out: Cyp IC50 (μM) 3A4(BQ), BQ substrate

CYP1A2, sequence (P05177 whole entry): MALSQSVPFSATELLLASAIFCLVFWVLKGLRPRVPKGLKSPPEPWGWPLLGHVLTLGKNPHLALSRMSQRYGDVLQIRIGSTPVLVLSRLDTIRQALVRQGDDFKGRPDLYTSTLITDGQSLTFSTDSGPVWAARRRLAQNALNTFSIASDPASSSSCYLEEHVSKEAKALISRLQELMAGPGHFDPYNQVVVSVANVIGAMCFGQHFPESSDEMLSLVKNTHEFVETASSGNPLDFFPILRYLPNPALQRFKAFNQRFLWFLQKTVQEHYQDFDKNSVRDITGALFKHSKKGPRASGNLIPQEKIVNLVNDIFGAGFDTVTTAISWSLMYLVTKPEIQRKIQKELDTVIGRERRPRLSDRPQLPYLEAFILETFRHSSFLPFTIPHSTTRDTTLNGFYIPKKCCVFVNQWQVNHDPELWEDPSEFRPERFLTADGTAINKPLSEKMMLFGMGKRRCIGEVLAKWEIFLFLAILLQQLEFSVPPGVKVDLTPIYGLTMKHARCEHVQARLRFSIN
CYP2C19, sequence (P33261 whole entry): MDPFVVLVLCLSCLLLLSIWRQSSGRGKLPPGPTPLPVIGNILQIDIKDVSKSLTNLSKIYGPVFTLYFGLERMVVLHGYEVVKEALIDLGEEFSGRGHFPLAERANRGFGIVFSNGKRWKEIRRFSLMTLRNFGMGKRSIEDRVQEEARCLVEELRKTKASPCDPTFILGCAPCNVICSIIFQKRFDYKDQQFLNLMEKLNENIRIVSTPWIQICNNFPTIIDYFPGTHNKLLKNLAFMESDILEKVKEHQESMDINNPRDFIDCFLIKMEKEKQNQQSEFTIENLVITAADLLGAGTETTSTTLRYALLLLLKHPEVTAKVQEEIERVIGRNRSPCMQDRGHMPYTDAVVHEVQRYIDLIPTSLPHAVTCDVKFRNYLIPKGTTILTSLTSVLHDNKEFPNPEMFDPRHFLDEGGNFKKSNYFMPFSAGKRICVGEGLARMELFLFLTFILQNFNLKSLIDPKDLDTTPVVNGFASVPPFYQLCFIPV
CYP3A4(BFC), sequence (P08684 whole entry): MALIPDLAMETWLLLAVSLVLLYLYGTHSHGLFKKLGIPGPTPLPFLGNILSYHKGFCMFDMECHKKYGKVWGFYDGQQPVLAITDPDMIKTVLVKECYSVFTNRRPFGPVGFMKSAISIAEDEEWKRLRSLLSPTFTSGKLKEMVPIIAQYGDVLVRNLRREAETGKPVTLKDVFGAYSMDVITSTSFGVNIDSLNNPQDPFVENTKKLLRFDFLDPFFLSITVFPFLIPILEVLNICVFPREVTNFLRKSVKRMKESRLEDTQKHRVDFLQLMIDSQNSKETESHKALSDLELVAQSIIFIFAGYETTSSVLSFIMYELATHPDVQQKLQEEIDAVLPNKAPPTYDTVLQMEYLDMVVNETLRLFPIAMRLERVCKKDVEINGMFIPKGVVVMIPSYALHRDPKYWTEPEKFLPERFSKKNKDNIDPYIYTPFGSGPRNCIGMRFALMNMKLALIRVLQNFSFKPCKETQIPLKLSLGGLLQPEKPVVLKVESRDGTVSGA
CYP3A4(BQ), sequence (P08684 whole entry): as above
CYP2C9, sequence (P11712 whole entry): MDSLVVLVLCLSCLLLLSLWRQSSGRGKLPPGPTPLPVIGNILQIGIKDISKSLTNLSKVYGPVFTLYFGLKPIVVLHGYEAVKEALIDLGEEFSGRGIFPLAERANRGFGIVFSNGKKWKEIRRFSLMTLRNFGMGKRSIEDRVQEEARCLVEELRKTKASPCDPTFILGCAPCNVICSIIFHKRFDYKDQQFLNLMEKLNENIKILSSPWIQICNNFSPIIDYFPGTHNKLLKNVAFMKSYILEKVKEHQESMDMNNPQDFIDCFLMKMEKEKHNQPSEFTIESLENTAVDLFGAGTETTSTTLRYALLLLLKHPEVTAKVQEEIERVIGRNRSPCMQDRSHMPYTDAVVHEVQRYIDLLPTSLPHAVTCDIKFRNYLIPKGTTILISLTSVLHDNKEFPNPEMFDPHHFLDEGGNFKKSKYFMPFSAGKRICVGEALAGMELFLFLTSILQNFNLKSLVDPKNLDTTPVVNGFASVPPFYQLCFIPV
CYP2D6, sequence (P10635 whole entry): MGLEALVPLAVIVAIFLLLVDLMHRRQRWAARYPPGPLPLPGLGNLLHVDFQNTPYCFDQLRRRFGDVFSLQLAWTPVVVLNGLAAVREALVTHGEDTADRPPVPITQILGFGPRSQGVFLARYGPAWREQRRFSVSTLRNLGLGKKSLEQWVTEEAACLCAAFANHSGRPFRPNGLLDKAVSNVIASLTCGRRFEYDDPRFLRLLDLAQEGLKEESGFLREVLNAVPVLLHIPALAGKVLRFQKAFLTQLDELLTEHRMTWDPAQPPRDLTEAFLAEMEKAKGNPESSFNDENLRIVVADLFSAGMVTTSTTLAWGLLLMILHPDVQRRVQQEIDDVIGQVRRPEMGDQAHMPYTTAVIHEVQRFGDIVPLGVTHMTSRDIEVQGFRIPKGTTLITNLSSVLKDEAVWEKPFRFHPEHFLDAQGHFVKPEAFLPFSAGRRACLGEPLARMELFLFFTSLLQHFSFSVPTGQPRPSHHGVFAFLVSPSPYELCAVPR
c-Kit kinase, sequence (P10721 26-976): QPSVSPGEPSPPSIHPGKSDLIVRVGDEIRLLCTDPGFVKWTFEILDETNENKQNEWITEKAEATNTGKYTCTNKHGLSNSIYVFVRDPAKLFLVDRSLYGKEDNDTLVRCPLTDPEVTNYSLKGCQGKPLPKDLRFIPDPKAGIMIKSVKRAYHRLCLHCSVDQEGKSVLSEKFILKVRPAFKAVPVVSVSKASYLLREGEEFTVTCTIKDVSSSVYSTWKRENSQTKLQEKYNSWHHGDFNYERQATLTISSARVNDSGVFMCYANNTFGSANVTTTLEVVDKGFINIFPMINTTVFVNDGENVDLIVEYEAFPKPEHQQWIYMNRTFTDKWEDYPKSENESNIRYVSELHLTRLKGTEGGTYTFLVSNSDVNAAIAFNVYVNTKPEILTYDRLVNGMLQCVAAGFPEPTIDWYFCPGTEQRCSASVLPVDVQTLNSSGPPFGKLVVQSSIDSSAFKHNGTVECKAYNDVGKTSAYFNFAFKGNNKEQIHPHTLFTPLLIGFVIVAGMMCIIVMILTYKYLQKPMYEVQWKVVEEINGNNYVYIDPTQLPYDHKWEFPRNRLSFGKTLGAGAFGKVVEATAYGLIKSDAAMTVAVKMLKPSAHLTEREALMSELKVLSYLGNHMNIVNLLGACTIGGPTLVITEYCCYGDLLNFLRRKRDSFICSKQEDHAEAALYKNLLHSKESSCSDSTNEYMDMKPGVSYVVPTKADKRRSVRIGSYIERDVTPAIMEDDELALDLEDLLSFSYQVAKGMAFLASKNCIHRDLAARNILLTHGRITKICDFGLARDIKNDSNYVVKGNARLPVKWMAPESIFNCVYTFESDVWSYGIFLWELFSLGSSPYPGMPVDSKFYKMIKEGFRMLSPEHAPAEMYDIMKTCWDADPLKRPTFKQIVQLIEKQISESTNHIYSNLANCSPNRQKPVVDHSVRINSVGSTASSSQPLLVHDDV
Fms kinase, sequence (P07333 20-972): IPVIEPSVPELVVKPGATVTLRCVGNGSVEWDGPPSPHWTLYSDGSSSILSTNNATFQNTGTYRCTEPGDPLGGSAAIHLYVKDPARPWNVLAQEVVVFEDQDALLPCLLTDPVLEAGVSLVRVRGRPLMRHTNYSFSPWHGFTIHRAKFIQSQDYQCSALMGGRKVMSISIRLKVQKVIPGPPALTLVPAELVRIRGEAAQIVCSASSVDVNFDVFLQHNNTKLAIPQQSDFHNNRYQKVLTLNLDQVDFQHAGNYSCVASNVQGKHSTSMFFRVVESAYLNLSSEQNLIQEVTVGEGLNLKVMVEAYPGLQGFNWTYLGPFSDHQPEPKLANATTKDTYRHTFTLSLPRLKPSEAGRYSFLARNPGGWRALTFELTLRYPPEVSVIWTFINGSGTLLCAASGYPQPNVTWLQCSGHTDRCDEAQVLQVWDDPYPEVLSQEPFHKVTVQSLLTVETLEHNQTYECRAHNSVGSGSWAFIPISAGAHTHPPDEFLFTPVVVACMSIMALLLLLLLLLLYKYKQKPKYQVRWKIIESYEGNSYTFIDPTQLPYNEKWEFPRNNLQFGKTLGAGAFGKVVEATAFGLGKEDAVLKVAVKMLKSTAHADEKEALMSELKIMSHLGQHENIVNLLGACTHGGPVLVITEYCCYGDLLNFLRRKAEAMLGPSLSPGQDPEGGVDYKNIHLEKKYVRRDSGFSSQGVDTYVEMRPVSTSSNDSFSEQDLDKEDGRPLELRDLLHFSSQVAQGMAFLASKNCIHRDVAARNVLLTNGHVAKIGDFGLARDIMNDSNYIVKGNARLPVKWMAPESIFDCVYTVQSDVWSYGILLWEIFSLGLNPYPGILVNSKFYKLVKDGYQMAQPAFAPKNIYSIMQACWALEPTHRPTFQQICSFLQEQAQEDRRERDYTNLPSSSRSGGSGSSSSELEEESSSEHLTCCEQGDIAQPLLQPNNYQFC

| Compound | IC50 [1, 9] [µM] | Biochemical activity selectivity (Kit IC50/Fms IC50) [1] | IC50 [1, 10] [µM] | IC50 ([2]; read-out: Cyp IC50 (μM) 1A2) [µM] | IC50 [3, 11] [µM] | IC50 [4] [µM] | IC50 ([5]; read-out: Cyp IC50 (μM) 2C9) [µM] | IC50 [6] [µM] | IC50 [7] [µM] | IC50 [8] [µM] | IC50 [2] [µM] | IC50 ([4]; read-out: Cyp IC50 (μM) 2D6) [µM] | IC50 ([6]; read-out: Cyp IC50 (μM) 2C19) [µM] | IC50 ([2]; human, 15 min) [µM] | IC50 [3] [µM] | IC50 [7, 12] [µM] | IC50 [5] [µM] |
| --- | --- | --- | --- | --- | --- | --- | --- | --- | --- | --- | --- | --- | --- | --- | --- | --- | --- |
| Fc1ccc(CNc2ccc(Cc3c[nH]c4ncc(Cl)cc34)cn2)cn1 [Compound P-2004, [5-(5-chloro-1H-pyrrolo[2,3-b]pyridin-3-ylmethyl)-pyridin-2-yl]-(6-fluoro-pyridin-3-ylmethyl)-amine] | < 0.1 | <20 | < 0.1 | > 10 | < 5 | 5 to 10 | < 5 | 5 to 10 | 5 to 10 | < 0.1 | – | – | – | – | – | – | – |
| Cc1cc(CNc2ccc(Cc3c[nH]c4ncc(Cl)cc34)c(F)n2)ccn1 [Compound P-2075, [5-(5-Chloro-1H-pyrrolo[2,3-b]pyridin-3-ylmethyl)-6-fluoro-pyridin-2-yl]-(2-methyl-pyridin-4-ylmethyl)-amine] | – | >20 | < 0.1 | – | < 5 | – | < 5 | – | 5 to 10 | > 0.1 | 5 to 10 | > 10 | < 5 | – | – | – | – |
| FC(F)(F)c1ccncc1CNc1ccc(Cc2c[nH]c3ncc(Cl)cc23)cn1 [Compound P-2063, [5-(5-Chloro-1H-pyrrolo[2,3-b]pyridin-3-ylmethyl)-pyridin-2-yl]-(4-trifluoromethyl-pyridin-3-ylmethyl)-amine] | – | <20 | < 0.1 | – | – | – | > 10 | 5 to 10 | 5 to 10 | < 0.1 | – | > 10 | – | > 10 | 5 to 10 | – | – |
| COc1cnc2[nH]cc(Cc3ccc(NCc4ccc(OC)nc4)nc3F)c2c1 [Compound P-2030, [6-Fluoro-5-(5-methoxy-1H-pyrrolo[2,3-b]pyridin-3-ylmethyl)-pyridin-2-yl]-(6-methoxy-pyridin-3-ylmethyl)-amine] | < 0.1 | <20 | < 0.1 | – | – | – | < 5 | – | – | > 0.1 | – | > 10 | < 5 | > 10 | 5 to 10 | > 10 | – |
| COc1ccnc2[nH]cc(Cc3ccc(NCc4ccc(Cl)cc4)nc3F)c12 [Compound P-2037, (4-Chloro-benzyl)-[6-fluoro-5-(4-methoxy-1H-pyrrolo[2,3-b]pyridin-3-ylmethyl)-pyridin-2-yl]-amine] | < 0.1 | <20 | < 0.1 | – | – | – | < 5 | – | – | > 0.1 | – | > 10 | < 5 | > 10 | 5 to 10 | > 10 | – |
| Cc1cnc2[nH]cc(Cc3cnc(NCc4cccc(C)n4)nc3)c2c1 [Compound P-2079, (6-Methyl-pyridin-2-ylmethyl)-[5-(5-methyl-1H-pyrrolo[2,3-b]pyridin-3-ylmethyl)-pyrimidin-2-yl]-amine] | – | <20 | < 0.1 | – | < 5 | – | – | 5 to 10 | 5 to 10 | < 0.1 | – | > 10 | – | > 10 | – | – | 5 to 10 |
| Clc1cnc2[nH]cc(Cc3ccc(NCc4ccc(Cl)nc4)nc3)c2c1 [Compound P-2003] | < 0.1 | <20 | < 0.1 | – | 5 to 10 | – | < 5 | – | – | < 0.1 | > 10 | > 10 | 5 to 10 | – | – | > 10 | – |
| COc1cnc2[nH]cc(Cc3cnc(NCc4ccc(C(F)(F)F)nc4)c(F)c3)c2c1 [Compound P-2147, [3-Fluoro-5-(5-methoxy-1H-pyrrolo[2,3-b]pyridin-3-ylmethyl)-pyridin-2-yl]-(6-trifluoromethyl-pyridin-3-ylmethyl)-amine] | – | <20 | < 0.1 | – | – | – | > 10 | – | 5 to 10 | < 0.1 | – | > 10 | < 5 | > 10 | 5 to 10 | – | – |
